Experimental findings from the supplement of paper PMC10307832 are described below.

Assay in all cases: relative viability (nuclei count vs DMSO), 5 days (fraction); higher = more cells survive
Compound in assay [1]: CC1CC(=O)N(C2=CN=C(N=C2N1C3CCCC3)NC4=C(C=C(C=C4)C(=O)NC5CCN(CC5)C)OC)C [NPK76-II-72-1] + CC(C)C[C@H](NC(=O)[C@H](Cc1ccccc1)NC(=O)c1cnccn1)B(O)O [Bortezomib] (partner 0.002 µM)
The gist of the method:
(§1)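 Relative viability divides the nuclei count in treated wells by that in vehicle wells. Lung cancer cell lines were seeded in 1536-well plates, dosed by pin tool the next day, and fixed and stained after 5 days in one step with final 0.05% Triton X-100, 1% formaldehyde and 1 ug/ml Hoechst. Dosing was a single drug or a fixed anchor-drug dose plus five library-drug doses (not always all listed) in √10 steps, and values are medians of duplicate plates imaged at 4×.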

Compound in assay [2]: CC1CC(=O)N(C2=CN=C(N=C2N1C3CCCC3)NC4=C(C=C(C=C4)C(=O)NC5CCN(CC5)C)OC)C [NPK76-II-72-1] + CS(=O)(=O)CCNCc1ccc(-c2ccc3ncnc(Nc4ccc(OCc5cccc(F)c5)c(Cl)c4)c3c2)o1 [Lapatinib] (partner 2 µM)
In a few lines: as §1

Compound in the assay “BI-2536 + Alpelisib”: CC[C@@H]1C(=O)N(C)c2cnc(Nc3ccc(C(=O)NC4CCN(C)CC4)cc3OC)nc2N1C1CCCC1 [BI-2536] + Cc1nc(NC(=O)N2CCC[C@H]2C(N)=O)sc1-c1ccnc(C(C)(C)C(F)(F)F)c1 [Alpelisib] (partner 2 µM)
In a few lines:
as §1

Compound in the assay “BI-2536 + OSI-027”: CC[C@@H]1C(=O)N(C)c2cnc(Nc3ccc(C(=O)NC4CCN(C)CC4)cc3OC)nc2N1C1CCCC1 [BI-2536] + COc1cccc2cc(-c3nc([C@H]4CC[C@H](C(=O)O)CC4)n4ncnc(N)c34)[nH]c12 [OSI-027] (partner 0.5 µM)
The gist of the method: as §1

In the case of UMC-11, the relative viability stood at 0.743 in assay [1] (first compound 0.01 µM); 0.605 in assay [1] (first compound 0.03162 µM); 0.773 in assay [1] (first compound 0.1 µM); 0.659 in assay [1] (first compound 0.3162 µM); 0.788 in assay [1] (first compound 1 µM); 0.923 in assay [2] (first compound 0.01 µM). The relative viability in assay [2] (first compound 0.03162 µM) was determined as 1.07; in assay [2] (first compound 0.1 µM), 1.08; in assay [2] (first compound 0.3162 µM), 0.782; in assay [2] (first compound 1 µM), 1.05; with BI-2536 + Alpelisib (first compound 0.01 µM) it was 0.978; in the assay with BI-2536 + Alpelisib (first compound 0.03162 µM), 0.733. In addition, the relative viability with BI-2536 + Alpelisib (first compound 0.1 µM) came to 0.312; with BI-2536 + Alpelisib (first compound 0.3162 µM), 0.152; with BI-2536 + Alpelisib (first compound 1 µM), 0.126; with BI-2536 + OSI-027 (first compound 0.01 µM), 0.5; in the assay with BI-2536 + OSI-027 (first compound 0.03162 µM) it was 0.27; with BI-2536 + OSI-027 (first compound 0.1 µM), 0.138. In addition, the figures for the relative viability with BI-2536 + OSI-027 (first compound 0.3162 µM) and in the assay with BI-2536 + OSI-027 (first compound 1 µM) were 0.192 and 0.158, respectively.
